test system: papillomata; test: Anti-cancer activity: mouse skin papilloma test (7,12-dimethylbenzanthracene / croton oil induced); format: in vivo, mouse (ICR strain, female); conditions: administered orally as 20 mg/ml solution in groundnut oil, 10 times for 14 days; total diameter on the 14th day vs. prior to administration
Description: A mouse (ICR strain, female, 50 days age) was shaved at the back of neck (to the extent of 5 cm^2). 7,12-Dimethylbenzo-[2]-anthracene was dissolved in acetone to give-75 mg /100 ml. solution. The so prepared solution was applied to the mouse on the 60th day of age and further on the 75th day of aqe in the amount of 0.2 ml per mouse.
Croton oil was dissolved in acetone to give 250 mg/ 100 ml solution, and the so prepared solution was applied to the mouse in the amount of 0.2 ml per mouse,-twice a week until the treatment was started. When 3 - 7 papillomata (diamether of 3 - 8 mm for each, and total diameter of 30 - 60 mm ) were produced for a mouse, the treatment was started.
The compound to be tested (test compound) was dissolved in groundnut oil to give 20' mg /ml solution, and administered orally to the mouse. The solution was administered 10 times for 14 days (once a day), and the diameters of the papillomata were measured on the 14th day to determine the total diameter for each mouse. Ratio of increase or decrease of the papillomata was calculated from the total diameter on the 14th day and the total diameter measured prior to the starting of administration of the test compound. This value was adopted' for evaluating the anti-cancer activity.

First: CC(C)=CCCC(C)=CCCC(C)=CCCC(C)=CC(=O)O [(8), 3,7,11,15-tetramethyl-2,6,10,14-hexadecatetraenoic acid]
Second: CC(C)=CCCC(C)=CCCC(C)=CCCC(C)=CC=CC(C)=CC(=O)O [(1), 3,7,11,15,19-pentamethyl-2,4,6,10,14,18-eicosahexa-enoic acid]
The “Ratio of increase or decrease of papillomas(%)” value of the first is higher: −6.5% for the first, −24.0% for the second.

Compared with `CC(C)=CCCC(C)=CCCC(C)=CC=CC(C)=CC(N)=O` [(5), 3,7,11,15-tetramethyl-2,4,6,10,14-hexadecapentaeno-amide], `CCOC(=O)C=C(C)C=CC=C(C)CCC=C(C)CCC=C(C)C` [(6), ethyl 3,7,11,15-tetramethyl-2,4,6,10,14-hexadeca-pentaenoate] is higher in “Ratio of increase or decrease of papillomas(%)” value: −25.5% for the first, −17.5% for the second.

Going from `CC(=O)CCC=C(C)CCC=C(C)CCC=C(C)CCC=C(C)C` [(9), 6,10,14,18-tetramethyl-5,9,13,17-nonadecatetraen-2-on] to `CC(=O)C=CC=C(C)CCC=C(C)CCC=C(C)CCC=C(C)C` [(7), 6,10,14,18-tetramethyl-3,5,9,13,17-nonadecapentaen-2-on], the “Ratio of increase or decrease of papillomas(%)” value falls from −8.2% to −12.7%.

Compared with `CC(C)=CCCC(C)=CC=CC(C)=CC=CC(C)=CC(=O)O` [(4), 3,7,11,15-tetramethyl-2,4,6,8,10,14-hexadecahexaeno-ic acid], `CC(C)=CCCC(C)CCCC(C)=CC=CC(C)=CC(=O)O` (stereo not drawn) [(2), 3,7,11,15-tetramethyl-2,4,6,14-hexadecatetraenoic acid] is higher in “Ratio of increase or decrease of papillomas(%)” value: −26.3% for the first, −19.5% for the second.

`CCOC(=O)C=C(C)C=CC=C(C)CCCC(C)CCC=C(C)C` (stereo not drawn) [(3), ethyl 3,7,11,15-tetramethyl-2,4,6,14-hexadecatetra-enoate] was tested, and the “Ratio of increase or decrease of papillomas(%)” value was −10.2%.
